The values that follow come from US9737520B2, “Aclidinium for use in improving the quality of sleep in respiratory patients” (Almirall, S.A., priority 2011, dated 2017).

Data set [1] relates to patients with moderate-to-severe COPD. The experiment in a line: Phase IIa randomised, double-blind, double-dummy, crossover trial; sleep difficulties score on patient diary card (Example 3). It counts as in vivo, human. The settings on record: 15 days; for average score (+/-SEM), change in sleep difficulties score with respect to baseline: aclidinium 400 μg BID, tiotropium 18 μg QD, score 0-4. The protocol: In a Phase IIa randomised, double-blind, double-dummy, crossover trial, patients with moderate-to-severe COPD received inhaled aclidinium 400 μg BID, tiotropium 18 μg QD and placebo for 15 days, with a 9-15 day washout between treatment periods.
The incidence of sleep difficulties was recorded daily on a patient diary card. As in Example 1, the scores ranged from 0 for none to 1-4 for increasing severity of the sleep difficulties. The change in the score produced by each treatment with respect to the baseline was then measured.

For data set [2] the following is noted: to two inactive metabolites; cited from earlier work.
For data set [3], the system named is respiratory patients. To be noted: administration in the evening versus only in the morning; cited from earlier work.

`O=C(O[C@H]1C[N+]2(CCCOc3ccccc3)CCC1CC2)C(O)(c1cccs1)c1cccs1` [aclidinium, 3(R)-(2-hydroxy-2,2-dithien-2-ylacetoxy)-1-(3-phenoxypropyl)-1-azoniabicyclo[2.2.2]octane]: the “average score (+/-SEM), change in sleep difficulties score with respect to baseline” value in data set [1] is listed as −0.123 (0.089). For the same compound, the “hydrolysis in human plasma” value in data set [2] is listed as “rapidly hydrolysed”.

For the compound `C[N+]1(C)[C@@H]2C[C@@H](OC(=O)C(O)(c3cccs3)c3cccs3)C[C@H]1[C@@H]1O[C@@H]12` [tiotropium], the “statistical difference of the sleep difficulties score with placebo” value in data set [1] (aclidinium 400 μg BID (p<0.05), tiotropium 18 μg QD (p>0.05)) was “no statistically significant difference”. Also, the “average score (+/-SEM), change in sleep difficulties score with respect to baseline” value in data set [1] is recorded as −0.011 (0.091). Moreover, the “bronchodilation during the night” value in data set [3] was “does not produce more bronchodilation during the night”.
